Measured values reported in patent US20030130180A1, “Utilization of an aminopeptidase inhibitor” (priority 2000, published 2003).

Experiments:
[1] = test system: tumor cells and immune cells; test: Cell-biological experiments on blocking of polarization of tumor cells and immune cells; type: cell-based; details: general statement
Excerpt: By means of a method of simultaneously detecting a number of cell surface proteins, it has been established that aminopeptidases will control cell surface proteins which are not part of the class of proteolytic enzymes, but belong to the class of the adhesion molecules, which adhesion molecules—in a certain combination and geometric array—will be decisive for the polarization of the cells. Consequently, aminopeptidases appear to be superordinate control proteins in a protein network consisting of up to 30 different cell surface protein species which—through specific interaction with one another—will control polarization of tumor cells and other invasive cells such as immune cells and which are listed above. The inhibition of at least one aminopeptidase will lead to a reproducible modification of surface protein combinations on the cell surface which will always also involve a modification of CD13. […] The term polarization as used here shall denote a process in which a primarily spherical cell will transition into an oblong, elongated cell shape, via various intermediate states. This process which constitutes a change of shape controlled by the complex protein network is the prerequisite for cell migration, since only cells of oblong shape are capable of migrating. The polarization process therefore needs to precede all cell migration processes, including invasion. […]

tumor cells = details: in vitro, matrigel analytic system; cited from earlier work

For `CCCCC[C@H](CC(=O)NO)C(=O)N[C@H](C(=O)N1CCC[C@H]1CO)C(C)C` [actinonin], the “effectiveness as aminopeptidase inhibitor blocking polarization” value [1] is listed as “particularly effective” and the tumor cell invasion (tumor cells) is listed as “do not have an effect”.
